Source: PMC5711933, “Intracellular biomass flocculation as a key mechanism of rapid bacterial killing by cationic, amphipathic antimicrobial peptides and peptoids” (Scientific Reports, 2017)
Read-outs that look alike come from different tables or passages of the source. Marks after values point to notes of the source that are not given here. Non-standard residues stand in square brackets, D forms with d. Residues, ends and D or L forms follow the SMILES beside them. N(1S-Me-propyl)Gly = CC[C@H](C)NCC(=O)O; Nspe = C[C@H](NCC(=O)O)c1ccccc1; Nphe = O=C(O)CNCc1ccccc1; Nlys = NCCCCNCC(=O)O

Columns and labels:
[1] = RP-HPLC elution (% ACN) as measure of hydrophobicity; type: physicochemical; conditions: chromatographic hydrophobicity; gradient of 5–95% acetonitrile (ACN) over 45 minutes, C18 column, 0.2 mL/min; average of three replicates
E. coli ATCC 35218 [2] = assay: Bacterial count by plating after treatment, before TEM sample preparation; type: cell-based; conditions: 1 hour in PBS pH 7.4, control 1 × 10^8 CFU/mL
Protocol: E. coli ATCC 35218, grown overnight at 35 °C in Mueller-Hinton broth (MHB), were resuspended in 1X (150 mM) PBS, pH 7.4, and diluted to a concentration of 1 × 10^8 CFU/mL. Aqueous peptide/peptoid stock solutions were added to 1 mL aliquots of the suspension to the desired final concentration. After 1 hour, small volumes of each sample were serially diluted, plated, and incubated overnight at 35 °C, to be counted the following day. The remaining volume of each sample was centrifuged, and the pellet resuspended and enrobed in 5–10 µL of 2% low-melting agarose (gelling temperature 25° ± 5 °C) then drawn up into the tip of a Pasteur pipette. The solidified rods were extruded into fixative (2% glutaraldehyde, 2% paraformaldehyde, 50 mM PBS, pH 7.4). […] 50 nm thin sections of embedded samples were cut using a diamond knife, stained for 5 min in 5% aqueous uranyl acetate, then rinsed in H2O. Sections were examined in a JEOL 1230 TEM. Experimental conditions were each repeated in at least two independent trials. For each replicate of each sample, bacteria across the thin section were first surveyed to determine morphological characteristics representative of that sample, then images were captured of at least five bacteria displaying those morphologies with an emphasis on clean (i.e., orthogonal) transverse and/or longitudinal sections. Each image shown is thus representative of the ultrastructural characteristics observed in bacteria throughout a given sample and between replicates.

EGFP-Luc plasmid = assay: DNA retardation assay (gel electrophoresis); type: binding; conditions: EGFP-Luc plasmid in TBS, complexes 20 min at room temperature, 1–2% agarose gel
Protocol: DNA retardation was analyzed by gel electrophoresis. Peptoid/peptide-DNA complexes were formed by adding 10 µL of peptide/peptoid solution of varying concentrations to 10 µL DNA solution (EGFP-Luc plasmid in Tris-buffered saline (TBS) buffer), and the resulting solution was mixed by gentle aspiration. Complexes were incubated for 20 min at room temperature. After complex formation, 20 µL of each sample were loaded onto a 1–2% agarose gel in Tris/borate/EDTA (TBE) buffer, which ran at 120 V for 15 min. DNA bands on the gel were visualized under UV light by ethidium bromide staining.

[3] = tested on: Bioluminescent P. aeruginosa; type: cell-based, Pseudomonas aeruginosa; conditions: 12.5 µM, LB, 37 °C; for Activity in bioluminescence kinetics assay (in words): up to 2 h
Protocol: The decrease in bioluminescence at 37 °C was measured for a range of concentrations from 0 – 100 μM (Supp. Figs. S6 and S7).
Bioluminescent P. aeruginosa [73] was grown at 37 °C in Luria-Bertani (LB) broth. […] In a 96-well plate, 50 µL of P. aeruginosa solution (1 × 10^6 CFU/mL) was added to 50 µL of antimicrobial solution, and the bioluminescence was measured using an IVIS imaging system (a Xenogen product from Caliper Life Sciences, Hopkinton, MA) at 10 min intervals for 2 h. The reported values are the average of three independent experiments with two replicates each.

P. aeruginosa = assay: Bacterial plating of P. aeruginosa (CFU); type: cell-based, Pseudomonas aeruginosa; conditions: 12.5 µM, LB, 37 °C, average of three replicates
Protocol: To further explore the mechanism of action, we studied the killing kinetics of AMPs, ampetoids, and conventional antibiotics against luciferase-expressing Pseudomonas aeruginosa, another Gram-negative bacterium, against which these peptoids have previously proven to be effective[61]. The decrease in bioluminescence at 37 °C was measured for a range of concentrations from 0 – 100 μM (Supp. Figs. S6 and S7).
The bacterial counts were determined by plating serial dilutions of samples on LB plates and counting bacterial colonies. The reported values are the average of three replicates.

[4] = tested on: E. coli bacterial ribosomes; assay: Aggregation of bacterial ribosomes (optical density at 550 nm); type: biochemical; conditions: 1 µM ribosome solution, antimicrobial up to 800 µM, 10 min, λ = 550 nm
Protocol: In a microcentrifuge tube, 5 µl of 1 µM purified bacterial ribosome solution (~40X diluted (v/v) from their intracellular concentration in bacterial cytosol)[62] was incubated with 5 µl of antimicrobial solution in a concentration range of 0–800 µM for 10 min. The absorbance of the solution was measured by UV-Vis spectroscopy at λ = 550 nm by a spectrophotometer (ND-1000, Thermo Scientific, Wilmington, DE). The values are reported as the average of three independent experiments with three replicates each.

E. coli ATCC 35218 [5] = type: cell-based; conditions: CAMHB, 35 °C, 16 h, final 5 × 10^5 CFU/mL, reproducible between three independent replicates
Protocol: MICs were determined according to CLSI M7-A6 protocols in a 96-well microtiter plate. In test wells, 50 μL bacterial inoculum (1 × 10^6 CFU/ml) in cation-adjusted Mueller-Hinton broth (CAMHB) was added to 50 μL peptoid solution in CAMHB (prepared by 1:2 serial dilutions). Positive controls contained 50 μL inoculum and 50 μL CAMHB without peptoid. […] MIC values reported were reproducible between three independent experimental replicates, each consisting of two parallel trials.

Erythrocytes = assay: Hemolysis assay; type: cell-based; conditions: human erythrocytes in PBS pH 7.4, 1 h at 37 °C, A350; three independent replicates (two for LL-37 and fowlicidin-1)
Protocol: The plate was then centrifuged at 1200 g for 15 min, 100 μL of the supernatant from each well transferred to a fresh microtiter plate, and A350 measured.

E. coli ATCC 35218 [6] = assay: Bacterial count by plating after 1-hour treatment, before SEM sample preparation; type: cell-based; conditions: 1 hour in PBS, control 5 × 10^5 CFU/mL
Protocol: E. coli was treated with 10 μM peptide or peptoid for 1 hour in phosphate-buffered saline (PBS). […] We used 10 μM peptide/peptoid for all samples since it is near the MICs of the majority of the oligomers.
Before fixation, aliquots of each samples were serially diluted and plated on agar to determine the concentration of live bacteria remaining after the 1-hour treatment. […] (1) SEM samples were treated in PBS (as discussed above), whereas MIC assays are performed in cation-adjusted Mueller-Hinton broth. AMPs and ampetoids are known to interact with ions in the media (for example, when switching from plain Mueller-Hinton broth to cation-adjusted Mueller-Hinton broth)[1], so differences in activity may be due to changes in media composition. (2) the treatments were for one hour only, whereas MICs are determined after 16 hours of growth. […] (3) Some of these compounds may cause inhibition of growth without causing bacterial cell death (i.e., they are bacteriostatic—which is what the MIC indicates—rather than bactericidal—which is determined by plating and counting colonies). […]
Overnight cultures of E. coli ATCC 35218 were centrifuged for 10 min and 2500 × g at room temperature, then resuspended in PBS. […] Bacterial concentrations of the diluted suspensions were calculated from their OD590 values using optical density curves derived from pre-determined concentrations. […]

[7] = average of three independent experiments with two replicates each

Row | Compound | % ACN at RP-HPLC elution [1] [%] | TEM: Bacterial count after 10 µM treatment (% of control) (E. coli ATCC 35218 [2]) | TEM: Bacterial count after 100 µM treatment (% of control) (E. coli ATCC 35218 [2]) | Retardation assay: mass of compound required to completely retard migration of 1 µg of DNA (EGFP-Luc plasmid) | Killing of bacteria within 10 minutes (CFU plating, in words) (P. aeruginosa) | Aggregation of ribosomes (in words) [4] | other results
1 | NCCCCNCC(=O)N(CC(=O)N(CC(=O)N(CCCCN)CC(=O)N(CC(=O)N(CC(=O)N(CCCCN)CC(=O)N(CC(=O)N(CC(=O)N(CCCCN)CC(=O)N(CC(=O)N(CC(N)=O)Cc1ccccc1)Cc1ccccc1)Cc1ccccc1)Cc1ccccc1)Cc1ccccc1)Cc1ccccc1)Cc1ccccc1)Cc1ccccc1 [1 achiral] (H-[Nlys][Nphe][Nphe][Nlys][Nphe][Nphe][Nlys][Nphe][Nphe][Nlys][Nphe][Nphe]-NH2) | 60.4 | 100 % of control | 0.03 % of control | 1.5 µg | – | – | Decrease in bioluminescence within 10 min ([3]; 10 min, average of three independent experiments with two replicates each): ~ 99.9%
2 | C[C@@H](c1ccccc1)N(CC(N)=O)C(=O)CN(CCCCN)C(=O)CN(CCCCN)C(=O)CN(C(=O)CN(C(=O)CN(CCCCN)C(=O)CN(C(=O)CN(CCCCN)C(=O)CN(CCCCN)C(=O)CN(C(=O)CN(C(=O)CNCCCCN)[C@@H](C)c1ccccc1)[C@@H](C)c1ccccc1)[C@@H](C)c1ccccc1)[C@@H](C)c1ccccc1)[C@@H](C)c1ccccc1 [1-NLys5,11] (H-[Nlys][Nspe][Nspe][Nlys][Nlys][Nspe][Nlys][Nspe][Nspe][Nlys][Nlys][Nspe]-NH2; N-terminus and C-terminus assumed) | 51.2 | 100 % of control | 30 % of control | 1.0 µg | – | – | –
3 | C[C@@H](c1ccccc1)N(CC(N)=O)C(=O)CN(C(=O)CN(CCCCN)C(=O)[C@@H]1CCCN1C(=O)CN(C(=O)CN(CCCCN)C(=O)CN(C(=O)CN(C(=O)CN(CCCCN)C(=O)CN(C(=O)CN(C(=O)CNCCCCN)[C@@H](C)c1ccccc1)[C@@H](C)c1ccccc1)[C@@H](C)c1ccccc1)[C@@H](C)c1ccccc1)[C@@H](C)c1ccccc1)[C@@H](C)c1ccccc1 [1-Pro9] (H-[Nlys][Nspe][Nspe][Nlys][Nspe][Nspe][Nlys][Nspe]P[Nlys][Nspe][Nspe]-NH2) | 62.6 | – | – | – | – | – | Decrease in bioluminescence at 2 h [3, 7]: ~ 20%
4 | O=C(O)c1cn(C2CC2)c2cc(N3CCNCC3)c(F)cc2c1=O [Ciprofloxacin] | – | – | – | – | did not kill bacteria | no aggregation | Decrease in bioluminescence at 1 h ([3]; 1 h, average of three independent experiments with two replicates each): ~ 97%
5 | CC[C@H](C)[C@H](NC(=O)[C@H](CCCCN)NC(=O)[C@H](CCC(=O)O)NC(=O)[C@H](CCCCN)NC(=O)[C@H](CO)NC(=O)[C@H](CCCCN)NC(=O)[C@H](CCCNC(=N)N)NC(=O)[C@H](Cc1ccccc1)NC(=O)[C@H](Cc1ccccc1)NC(=O)[C@H](CC(=O)O)NC(=O)CNC(=O)[C@H](CC(C)C)NC(=O)[C@@H](N)CC(C)C)C(=O)NCC(=O)N[C@@H](CCCCN)C(=O)N[C@@H](CCC(=O)O)C(=O)N[C@@H](Cc1ccccc1)C(=O)N[C@@H](CCCCN)C(=O)N[C@@H](CCCNC(=N)N)C(=O)N[C@H](C(=O)N[C@H](C(=O)N[C@@H](CCC(N)=O)C(=O)N[C@@H](CCCNC(=N)N)C(=O)N[C@H](C(=O)N[C@@H](CCCCN)C(=O)N[C@@H](CC(=O)O)C(=O)N[C@@H](Cc1ccccc1)C(=O)N[C@@H](CC(C)C)C(=O)N[C@@H](CCCNC(=N)N)C(=O)N[C@@H](CC(N)=O)C(=O)N[C@@H](CC(C)C)C(=O)N[C@H](C(=O)N1CCC[C@H]1C(=O)N[C@@H](CCCNC(=N)N)C(=O)N[C@H](C(=O)N[C@@H](CCC(=O)O)C(=O)N[C@@H](CO)C(=O)O)[C@@H](C)O)C(C)C)[C@@H](C)CC)C(C)C)[C@@H](C)CC [LL-37, reference compound] | – | – | – | – | – | – | E. coli ATCC 35218 MIC (E. coli ATCC 35218 [5]): 12.5 µM; HD10 (hemolytic dose; concentration for 10% hemolysis) (Erythrocytes): >100/>100^§ µM; HD50 (hemolytic dose; concentration for 50% hemolysis) (Erythrocytes): >100/>100^§ µM
6 | CC[C@H](C)N(CC(N)=O)C(=O)CN(C(=O)CN(CCCCN)C(=O)CN(C(=O)CN(C(=O)CN(CCCCN)C(=O)CN(C(=O)CN(C(=O)CN(CCCCN)C(=O)CN(C(=O)CN(C(=O)CNCCCCN)[C@@H](C)CC)[C@@H](C)CC)[C@@H](C)CC)[C@@H](C)CC)[C@@H](C)CC)[C@@H](C)CC)[C@@H](C)CC [compound 2] (H-[Nlys][N(1S-Me-propyl)Gly][N(1S-Me-propyl)Gly][Nlys][N(1S-Me-propyl)Gly][N(1S-Me-propyl)Gly][Nlys][N(1S-Me-propyl)Gly][N(1S-Me-propyl)Gly][Nlys][N(1S-Me-propyl)Gly][N(1S-Me-propyl)Gly]-NH2) | 52.4 | 100 % of control | 100 % of control | >145^§ µg | – | did not cause aggregation | E. coli ATCC 35218 MIC (E. coli ATCC 35218 [5]; listed as peptoid 2): > 100 µM; SEM: Bacterial count after 10 µM treatment (% of control) (E. coli ATCC 35218 [6]): 100 % of control; Activity in bioluminescence kinetics assay (in words) [3]: completely ineffective
7 | CC[C@H](C)[C@H](NC(=O)CN)C(=O)NCC(=O)N[C@@H](C)C(=O)N[C@H](C(=O)N[C@@H](CC(C)C)C(=O)N[C@@H](CCCCN)C(=O)N[C@H](C(=O)N[C@@H](CC(C)C)C(=O)N[C@H](C(=O)N[C@H](C(=O)NCC(=O)N[C@@H](CC(C)C)C(=O)N1CCC[C@H]1C(=O)N[C@@H](C)C(=O)N[C@@H](CC(C)C)C(=O)N[C@H](C(=O)N[C@@H](CO)C(=O)N[C@@H](Cc1c[nH]c2ccccc12)C(=O)N[C@H](C(=O)N[C@@H](CCCCN)C(=O)N[C@@H](CCCNC(=N)N)C(=O)N[C@@H](CCCCN)C(=O)N[C@@H](CCCNC(=N)N)C(=O)N[C@@H](CCC(N)=O)C(=O)N[C@@H](CCC(N)=O)C(N)=O)[C@@H](C)CC)[C@@H](C)CC)[C@@H](C)O)[C@@H](C)O)C(C)C)C(C)C [melittin, reference compound] | – | – | – | – | – | – | E. coli ATCC 35218 MIC (E. coli ATCC 35218 [5]): 12.5 µM
8 | CN(C)[C@@H]1C(O)=C(C(N)=O)C(=O)[C@@]2(O)C(O)=C3C(=O)c4c(O)cccc4[C@@](C)(O)[C@H]3C[C@@H]12 [tetracycline] | – | – | – | – | did not kill bacteria | no aggregation | Decrease in bioluminescence at 2 h [3, 7]: ~ 97%
9 | oligomycin A | – | – | – | – | did not kill bacteria | no aggregation | Activity in bioluminescence kinetics assay (in words) [3]: inactive
